Data reported in the NIST ThermoML archive (doi:10.1021/acs.jced.5b01058).

Conditions: Liquid, Ebulliometric method (Recirculating still)

CCC(C)=O [butanone]
Conditions	vapor or sublimation pressure [kPa]
350.25 K	94

CCCCOC(C)=O [butyl ethanoate]
Conditions	vapor or sublimation pressure [kPa]
361.85 K	29.92
364.47 K	32.95
370.9 K	41.42
373.32 K	45.02
380.1 K	56.43
381.99 K	60
382.01 K	60
382.08 K	60.15
388.06 K	72.71
391.2 K	80.09
394.58 K	88.69
398.35 K	99.03
399.09 K	101.3

CCCC(=O)OCC [ethyl butanoate]
Conditions	vapor or sublimation pressure [kPa]
361.56 K	35.41
365.24 K	40.41
371.33 K	50
373.83 K	54.4
376.28 K	58.98
377.21 K	60
377.23 K	60
379.65 K	65.75
384.82 K	77.2
387.65 K	84.14
390.23 K	90.84
393.63 K	100.4
393.78 K	101.3

CCCCCCC [heptane]
Conditions	vapor or sublimation pressure [kPa]
368.85 K	94

CCCCC(=O)OC [methyl pentanoate]
Conditions	vapor or sublimation pressure [kPa]
361.82 K	29.41
366.7 K	35.06
370.86 K	40.47
374.53 K	45.81
378.84 K	52.83
382.55 K	59.35
383.29 K	60
387.18 K	69.02
391.14 K	77.71
395.42 K	88.17
398.03 K	95.08
400.07 K	100.4
400.48 K	101.3

CCCCCCCC [octane]
Conditions	vapor or sublimation pressure [kPa]
380.76 K	60
380.78 K	60
380.82 K	60
380.84 K	60
380.85 K	60
380.87 K	60
380.94 K	60

CCCCCOC=O [pentyl methanoate]
Conditions	vapor or sublimation pressure [kPa]
370.04 K	33.67
374.41 K	39.15
377.87 K	44.06
381.35 K	49.42
385.08 K	55.79
387.4 K	60
387.46 K	60
387.67 K	60.5
391.65 K	68.46
394.01 K	73.5
396.89 K	80.16
399.55 K	86.56
402.19 K	93.45
405.12 K	101.3

CCCOC(=O)CC [propyl propanoate]
Conditions	vapor or sublimation pressure [kPa]
361.75 K	33.58
367.3 K	40.92
371.88 K	47.9
373.82 K	51.21
378.75 K	60
379.07 K	60.83
383.56 K	70.32
386.81 K	77.9
390.13 K	86.38
392.74 K	93.37
395.51 K	101.3
